Laboratory results published in patent US7902361B2, “Pyrimidin-4-yl-3, 4-thione compounds and their use in therapy” (Cyclacel Limited, priority 2003, dated 2011).

Assays:
Type in all cases: biochemical
CDK2/cyclin E = CDK2/cyclin E (Homo sapiens, UniProt P24941); test: Kinase assay CDK2/cyclin E; conditions: Ki calculated (Cheng-Prusoff) from experimentally determined IC50 and Km,ATP; read-out: Kinase Inhibition Ki CDK2 - cyclin E
Procedure: (§1) The compounds from the examples above were investigated for their ability to inhibit the enzymatic activity of various protein kinases. This was achieved by measurement of incorporation of radioactive phosphate from ATP into appropriate polypeptide substrates. Recombinant protein kinases and kinase complexes were produced or obtained commercially. Assays were performed using 96-well plates and appropriate assay buffers (typically 25 mM β-glycerophosphate, 20 mM MOPS, 5 mM EGTA, 1 mM DTT, 1 mM […], pH 7.4), into which were added 2-4 μg of active enzyme with appropriate substrates. […] Reactions were stopped on ice, followed by filtration through p81 filterplates or GF/C filterplates (Whatman Polyfiltronics, Kent, UK). After washing 3 times with 75 mM aq orthophosphoric acid, plates were dried, scintillant added and incorporated radioactivity measured in a scintillation counter (TopCount, Packard Instruments, Pangbourne, Berks, UK). Compounds for kinase assay were made up as 10 mM stocks in DMSO and diluted into 10% DMSO in assay buffer.

CDK1/cyclin B = CDK1/cyclin B (Homo sapiens, UniProt P06493); test: Kinase assay CDK1/cyclin B (radioactive phosphate incorporation); conditions: Ki calculated (Cheng-Prusoff) from experimentally determined IC50 and Km,ATP; read-out: Kinase Inhibition Ki CDK1 - cyclin B
Procedure: as §1

aurora A = molecular target: T1, aurora A (Homo sapiens, UniProt O14965); test: Kinase assay aurora A; conditions: Ki calculated (Cheng-Prusoff) from experimentally determined IC50 and Km,ATP; read-out: Kinase Inhibition Ki Aurora A
T1 sequence (O14965 1-403): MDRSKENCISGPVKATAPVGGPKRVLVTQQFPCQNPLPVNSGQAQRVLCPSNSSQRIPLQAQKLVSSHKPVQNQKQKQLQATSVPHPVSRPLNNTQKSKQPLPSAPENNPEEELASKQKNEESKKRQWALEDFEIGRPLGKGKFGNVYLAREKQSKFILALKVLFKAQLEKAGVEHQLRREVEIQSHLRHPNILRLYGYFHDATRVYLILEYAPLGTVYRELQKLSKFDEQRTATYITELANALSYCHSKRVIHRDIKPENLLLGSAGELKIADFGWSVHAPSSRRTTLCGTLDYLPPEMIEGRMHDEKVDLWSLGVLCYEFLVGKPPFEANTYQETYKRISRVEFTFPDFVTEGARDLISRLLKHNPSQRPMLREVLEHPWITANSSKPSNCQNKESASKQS
Procedure: as §1

CDK7/cyclin H = CDK7/cyclin H (Homo sapiens, UniProt P50613); test: Kinase assay CDK7/cyclin H; conditions: Ki calculated (Cheng-Prusoff) from experimentally determined IC50 and Km,ATP; read-out: Kinase Inhibition Ki CDK7 - cyclin H
Procedure: (§2) The compounds from the examples above were investigated for their ability to inhibit the enzymatic activity of various protein kinases. This was achieved by measurement of incorporation of radioactive phosphate from ATP into appropriate polypeptide substrates. Recombinant protein kinases and kinase complexes were produced or obtained commercially. Assays were performed using 96-well plates and appropriate assay buffers (typically 25 mM β-glycerophosphate, 20 mM MOPS, 5 mM EGTA, 1 mM DTT, 1 mM […], pH 7.4), into which were added 2-4 μg of active enzyme with appropriate substrates. The reactions were initiated by addition of Mg/ATP mix (15 mM MgCl2+100 μM ATP with 30-50 kBq per well of [γ-^32P]-ATP) and mixtures incubated as required at 30° C. Reactions were stopped on ice, followed by filtration through p81 filterplates or GF/C filterplates (Whatman Polyfiltronics, Kent, UK). After washing 3 times with 75 mM aq orthophosphoric acid, plates were dried, scintillant added and incorporated radioactivity measured in a scintillation counter (TopCount, Packard Instruments, Pangbourne, Berks, UK). Compounds for kinase assay were made up as 10 mM stocks in DMSO and diluted into 10% DMSO in assay buffer.

CDK4/cyclin D1 = CDK4/cyclin D1 (Homo sapiens, UniProt P11802); test: Kinase assay CDK4/cyclin D1; conditions: Ki calculated (Cheng-Prusoff) from experimentally determined IC50 and Km,ATP; read-out: Kinase Inhibition Ki CDK4 - cyclin D1
Procedure: as §2

CDK9/cyclin T1 = CDK9/cyclin T1 (Homo sapiens, UniProt P50750); test: Kinase assay CDK9/cyclin T1; conditions: Ki calculated (Cheng-Prusoff) from experimentally determined IC50 and Km,ATP; read-out: Kinase Inhibition Ki CDK9 - cyclin T1
Procedure: as §2

CDK2/cyclin A = CDK2/cyclin A (Homo sapiens, UniProt P24941); test: Kinase assay CDK2/cyclin A; conditions: Ki calculated (Cheng-Prusoff) from experimentally determined IC50 and Km,ATP; read-out: Kinase Inhibition Ki CDK2 - cyclin A
Procedure: as §1

GSK3β = molecular target: T2, GSK3β (Homo sapiens, UniProt P49841); test: GSK3β in vitro kinase assay; conditions: recombinant human GSK3β, 100 μM ATP
T2 construct: purchased New England Biolabs
Procedure: Both isoforms of GSK3 (α and β) are involved in the regulation of glycogen synthase activity—key enzyme in the glycogen metabolism.
A 10-point titration was set up to determine the IC50 values of selected example compounds against GSK3β. Assays were performed using 96-well microtiter plates with a final volume of 25 μL per well. Each assay contained 1.5 units of GSK3β(New England Biolabs), 200 μM CREB phosphopeptide ([…]pSYR, Alta Biosciences), 20 mM Tris HCl pH7.5, 5 mM DTT, 15 mM MgCl2 supplemented with 100 μM ATP and 0.5 μCi of [γ-^32P] ATP plus or minus inhibitor in 2% DMSO. Assays were carried out for 30 minutes at 30° C. before stopping the reaction by the addition of an equal volume of 75 mM aqueous phosphoric acid. Samples were then spotted onto a p81 filterplate (Whatman) and a vacuum was applied. Wells were washed 3 times with 200 μL of dilute aqueous phosphoric acid before the addition of 50 μL Microscint 40 per well. Incorporation of radioactivity was determined on a Topcount microplate scintillation counter (Packard).

CDK1/cyclin B, sequence (P06493 whole entry, species assumed): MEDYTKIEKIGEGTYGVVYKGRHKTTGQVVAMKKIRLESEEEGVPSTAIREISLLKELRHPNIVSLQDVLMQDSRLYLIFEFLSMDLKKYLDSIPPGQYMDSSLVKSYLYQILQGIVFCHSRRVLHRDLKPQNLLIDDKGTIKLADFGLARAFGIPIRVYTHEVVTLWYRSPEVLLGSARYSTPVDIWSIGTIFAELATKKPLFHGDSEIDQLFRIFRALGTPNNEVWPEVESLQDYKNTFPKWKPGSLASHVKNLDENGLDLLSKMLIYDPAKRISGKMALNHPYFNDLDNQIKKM
CDK1/cyclin B, sequence (P14635 whole entry partner, species assumed): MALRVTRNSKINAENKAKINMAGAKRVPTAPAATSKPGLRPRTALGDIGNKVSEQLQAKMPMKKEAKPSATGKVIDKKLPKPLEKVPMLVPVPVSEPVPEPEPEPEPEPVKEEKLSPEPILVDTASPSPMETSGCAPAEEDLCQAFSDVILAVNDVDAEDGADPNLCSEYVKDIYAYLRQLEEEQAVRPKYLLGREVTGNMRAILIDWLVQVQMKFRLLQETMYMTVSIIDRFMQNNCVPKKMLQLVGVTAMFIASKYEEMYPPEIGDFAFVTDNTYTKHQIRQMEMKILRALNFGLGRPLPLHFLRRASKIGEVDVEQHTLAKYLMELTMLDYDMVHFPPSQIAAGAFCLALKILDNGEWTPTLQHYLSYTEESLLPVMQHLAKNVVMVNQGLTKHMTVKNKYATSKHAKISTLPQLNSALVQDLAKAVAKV
CDK9/cyclin T1, sequence (P50750 whole entry, species assumed): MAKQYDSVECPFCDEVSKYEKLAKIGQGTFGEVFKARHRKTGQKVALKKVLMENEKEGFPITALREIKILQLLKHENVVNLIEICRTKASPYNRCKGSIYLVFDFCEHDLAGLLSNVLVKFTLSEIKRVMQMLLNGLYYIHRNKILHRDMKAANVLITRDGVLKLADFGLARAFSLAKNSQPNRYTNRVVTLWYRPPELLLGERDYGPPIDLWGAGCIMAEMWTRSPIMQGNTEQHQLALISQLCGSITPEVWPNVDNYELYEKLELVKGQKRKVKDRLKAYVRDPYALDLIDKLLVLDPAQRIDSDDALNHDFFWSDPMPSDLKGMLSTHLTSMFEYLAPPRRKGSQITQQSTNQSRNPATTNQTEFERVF
CDK9/cyclin T1, sequence (O60563 whole entry partner, species assumed): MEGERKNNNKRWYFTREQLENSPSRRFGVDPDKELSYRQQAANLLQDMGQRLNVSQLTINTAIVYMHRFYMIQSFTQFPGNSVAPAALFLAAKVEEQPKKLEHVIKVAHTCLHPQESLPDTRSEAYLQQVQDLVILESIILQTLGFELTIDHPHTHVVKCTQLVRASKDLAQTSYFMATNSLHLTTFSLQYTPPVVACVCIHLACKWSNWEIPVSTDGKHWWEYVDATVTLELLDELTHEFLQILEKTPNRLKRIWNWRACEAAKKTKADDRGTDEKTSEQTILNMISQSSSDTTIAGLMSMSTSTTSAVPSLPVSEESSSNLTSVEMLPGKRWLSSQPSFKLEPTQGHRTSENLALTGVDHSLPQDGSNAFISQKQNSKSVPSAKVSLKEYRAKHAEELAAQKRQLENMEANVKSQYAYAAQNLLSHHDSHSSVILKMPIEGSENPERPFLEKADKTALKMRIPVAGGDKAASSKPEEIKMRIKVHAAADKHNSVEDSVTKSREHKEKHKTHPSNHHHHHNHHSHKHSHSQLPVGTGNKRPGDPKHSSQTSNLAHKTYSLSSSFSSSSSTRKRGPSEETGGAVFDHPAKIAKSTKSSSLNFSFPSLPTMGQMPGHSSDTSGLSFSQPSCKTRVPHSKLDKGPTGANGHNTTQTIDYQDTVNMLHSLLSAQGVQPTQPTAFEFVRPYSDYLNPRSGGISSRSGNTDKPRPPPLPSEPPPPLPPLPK
CDK7/cyclin H, sequence (P50613 whole entry, species assumed): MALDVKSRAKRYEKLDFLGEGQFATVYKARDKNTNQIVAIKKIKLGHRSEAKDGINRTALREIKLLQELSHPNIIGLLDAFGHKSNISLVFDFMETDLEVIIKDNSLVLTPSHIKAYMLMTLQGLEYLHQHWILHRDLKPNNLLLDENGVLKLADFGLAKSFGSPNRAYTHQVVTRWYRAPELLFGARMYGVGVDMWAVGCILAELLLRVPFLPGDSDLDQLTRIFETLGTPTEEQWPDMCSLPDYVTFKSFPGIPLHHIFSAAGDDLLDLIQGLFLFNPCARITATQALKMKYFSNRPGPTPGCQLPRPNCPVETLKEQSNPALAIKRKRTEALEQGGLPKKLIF
CDK7/cyclin H, sequence (P51946 whole entry partner, species assumed): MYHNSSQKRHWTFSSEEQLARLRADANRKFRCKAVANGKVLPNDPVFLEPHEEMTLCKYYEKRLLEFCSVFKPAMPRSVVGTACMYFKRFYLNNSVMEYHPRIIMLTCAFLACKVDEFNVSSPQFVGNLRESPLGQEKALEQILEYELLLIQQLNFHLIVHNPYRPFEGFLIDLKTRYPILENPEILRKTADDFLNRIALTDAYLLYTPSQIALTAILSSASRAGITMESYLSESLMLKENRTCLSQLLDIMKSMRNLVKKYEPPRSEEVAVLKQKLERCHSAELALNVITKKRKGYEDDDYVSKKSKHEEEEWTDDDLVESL
CDK4/cyclin D1, sequence (P11802 whole entry, species assumed): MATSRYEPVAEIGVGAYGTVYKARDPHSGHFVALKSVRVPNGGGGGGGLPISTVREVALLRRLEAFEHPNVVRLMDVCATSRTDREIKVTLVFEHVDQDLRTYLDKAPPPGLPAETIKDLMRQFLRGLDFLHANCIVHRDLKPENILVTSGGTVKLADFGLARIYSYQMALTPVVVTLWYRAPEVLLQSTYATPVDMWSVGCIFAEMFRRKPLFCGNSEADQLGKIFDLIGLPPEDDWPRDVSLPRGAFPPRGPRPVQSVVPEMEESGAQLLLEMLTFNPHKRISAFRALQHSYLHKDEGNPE
CDK4/cyclin D1, sequence (P24385 whole entry partner, species assumed): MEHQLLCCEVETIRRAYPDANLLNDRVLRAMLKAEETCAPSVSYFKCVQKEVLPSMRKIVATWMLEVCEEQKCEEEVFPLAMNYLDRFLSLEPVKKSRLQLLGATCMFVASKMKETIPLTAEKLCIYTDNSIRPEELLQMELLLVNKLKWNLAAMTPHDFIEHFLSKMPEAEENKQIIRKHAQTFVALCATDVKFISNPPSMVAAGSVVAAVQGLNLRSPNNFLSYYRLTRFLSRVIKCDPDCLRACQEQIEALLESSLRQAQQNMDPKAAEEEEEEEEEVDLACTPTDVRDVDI
T2 sequence (P49841 whole entry): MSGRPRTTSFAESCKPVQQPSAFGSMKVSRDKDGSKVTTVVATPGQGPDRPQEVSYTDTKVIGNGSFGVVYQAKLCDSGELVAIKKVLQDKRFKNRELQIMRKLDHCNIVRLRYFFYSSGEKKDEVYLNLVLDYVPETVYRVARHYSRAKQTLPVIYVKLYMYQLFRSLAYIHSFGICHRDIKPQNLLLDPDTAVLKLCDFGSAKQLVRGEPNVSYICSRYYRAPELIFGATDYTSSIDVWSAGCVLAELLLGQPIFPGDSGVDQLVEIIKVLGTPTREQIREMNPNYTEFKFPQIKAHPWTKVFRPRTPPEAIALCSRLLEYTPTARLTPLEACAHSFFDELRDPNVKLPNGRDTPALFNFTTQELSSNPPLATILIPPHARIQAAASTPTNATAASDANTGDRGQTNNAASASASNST

Row | Structure (SMILES) | Ki (CDK2/cyclin E) [nM] | Ki (CDK1/cyclin B) [nM] | Ki (aurora A) [nM] | Ki (CDK7/cyclin H) [nM] | Ki (CDK4/cyclin D1) [nM] | Ki (CDK9/cyclin T1) [nM] | Ki (CDK2/cyclin A) [nM] | IC50 (GSK3β) [nM]
1 | Cc1c(-c2ccnc(Nc3ccc(N(C)C)c([N+](=O)[O-])c3)n2)sc(=O)n1C [Compound 22, 5-[2-(4-Dimethylamino-3-nitro-phenylamino)-pyrimidin-4-yl]-3,4-dimethyl-3H-thiazol-2-one] | 53 | 82 | 110 | 1.9 | 1300 | 7.2 | 0.5 | –
2 | CCn1c(C)c(-c2ccnc(Nc3ccc(N(C)C)cc3)n2)sc1=O [Compound 26, 5-[2-(4-Dimethylamino-phenylamino)-pyrimidin-4-yl]-3-ethyl-4-methyl-3H-thiazol-2-one] | 290 | 7000 | – | 220 | 280 | 690 | 150 | –
3 | CCn1c(C)c(-c2ccnc(Nc3ccc(N4CCOCC4)cc3)n2)sc1=O [Compound 27, 3-Ethyl-4-methyl-5-[2-(4-morpholin-4-yl-phenylamino)-pyrimidin-4-yl]-3H-thiazol-2-one] | 500 | – | 33 | 1600 | 3300 | 690 | 2000 | –
4 | Cc1c(-c2ccnc(Nc3cccc([N+](=O)[O-])c3)n2)sc(=O)n1CCC(C)C [Compound 30, 4-Methyl-3-(3-methyl-butyl)-5-[2-(3-nitro-phenylamino)-pyrimidin-4-yl]-3H-thiazol-2-one] | 290 | 670 | – | 31 | 21000 | 190 | 560 | –
5 | COc1ccc(Nc2nccc(-c3sc(=O)n(CCC(C)C)c3C)n2)cn1 [Compound 35, 5-[2-(6-Methoxy-pyridin-3-ylamino)-pyrimidin-4-yl]-4-methyl-3-(3-methyl-butyl)-3H-thiazol-2-one] | 660 | 2600 | – | 200 | 2000 | 490 | 190 | –
6 | Cc1[nH]c(=O)sc1-c1ccnc(Nc2cccc([N+](=O)[O-])c2)n1 [Compound 40, 4-Methyl-5-[2-(3-nitro-phenylamino)-pyrimidin-4-yl]-3H-thiazol-2-one] | 3.2 | 17 | – | 71 | 230 | 2.4 | 11 | –
7 | Cc1ccc(Nc2nccc(-c3sc(=O)[nH]c3C)n2)cc1[N+](=O)[O-] [Compound 41, 4-Methyl-5-[2-(4-methyl-3-nitro-phenylamino)-pyrimidin-4-yl]-3H-thiazol-2-one] | 12 | 49 | – | 290 | 130 | 8.9 | 23 | –
8 | CCn1c(C)c(-c2ccnc(Nc3cccc(O)c3)n2)sc1=O [Compound 43, 3-Ethyl-5-[2-(3-hydroxy-phenylamino)-pyrimidin-4-yl]-4-methyl-3H-thiazol-2-one] | 2 | – | – | 19 | 130 | – | – | 41.5
9 | CCn1c(C)c(-c2ccnc(Nc3ccc(Cl)c(C(F)(F)F)c3)n2)sc1=O [Compound 48, 5-[2-(4-Chloro-3-trifluoromethyl-phenylamino)-pyrimidin-4-yl]-3-ethyl-4-methyl-3H-thiazol-2-one] | – | – | – | – | – | 230 | – | 61.9
10 | CCn1c(C)c(-c2ccnc(Nc3ccc(Cl)c(C)c3)n2)sc1=O [Compound 51, 5-[2-(4-Chloro-3-methyl-phenylamino)-pyrimidin-4-yl]-3-ethyl-4-methyl-3H-thiazol-2-one] | 270 | 2100 | – | 970 | – | 190 | – | 542
11 | CCn1c(C)c(-c2ccnc(Nc3cccc(S(=O)(=O)O)c3)n2)sc1=O [Compound 54, 3-[4-(3-Ethyl-4-methyl-2-oxo-2,3-dihydro-thiazol-5-yl)-pyrimidin-2-ylamino]-benzenesulfonic acid] | – | – | – | – | – | – | – | 158

Results, then the molecule that gave them:

Row | Ki (CDK2/cyclin E) [nM] | Ki (CDK1/cyclin B) [nM] | Ki (aurora A) [nM] | Ki (CDK7/cyclin H) [nM] | Ki (CDK4/cyclin D1) [nM] | Ki (CDK9/cyclin T1) [nM] | Ki (CDK2/cyclin A) [nM] | IC50 (GSK3β) [nM] | Structure (SMILES)
12 | 10 | 1000 | 700 | 2.8 | 300 | 0.3 | 170 | – | Cc1c(-c2ccnc(Nc3cccc([N+](=O)[O-])c3)n2)sc(=O)n1C [Compound 1, 3,4-Dimethyl-5-[2-(3-nitro-phenylamino)-pyrimidin-4-yl]-3H-thiazol-2-one]
13 | 98 | 64 | – | 600 | 150 | 14 | 8.6 | – | Cc1ccc(Nc2nccc(-c3sc(=O)n(C)c3C)n2)cc1N [Compound 39, 5-[2-(3-Amino-4-methyl-phenylamino)-pyrimidin-4-yl]-3,4-dimethyl-3H-thiazol-2-one]
14 | 34 | 580 | – | 380 | 770 | 19 | 220 | 38.5 | CC(=O)NCc1cccc(Nc2nccc(-c3sc(=O)n(C)c3C)n2)c1 [Compound 42, N-{3-[4-(3,4-Dimethyl-2-oxo-2,3-dihydro-thiazol-5-yl)-pyrimidin-2-ylamino]-benzyl}-acetamide]
15 | 77 | 730 | 25 | 70 | 1200 | 16 | 160 | – | CCn1c(C)c(-c2ccnc(Nc3ccc([N+](=O)[O-])cc3)n2)sc1=O [Compound 52, 3-Ethyl-4-methyl-5-[2-(4-nitro-phenylamino)-pyrimidin-4-yl]-3H-thiazol-2-one]
16 | 180 | – | – | – | – | – | 590 | 43.5 | CCn1c(C)c(-c2ccnc(Nc3ccc(S(=O)(=O)O)cc3)n2)sc1=O [Compound 53, 4-[4-(3-Ethyl-4-methyl-2-oxo-2,3-dihydro-thiazol-5-yl)-pyrimidin-2-ylamino]-benzenesulfonic acid]
17 | 80 | 1100 | – | – | – | 380 | 650 | 66.5 | Cc1c(-c2ccnc(Nc3ccc(S(=O)(=O)NCc4ccccc4)cc3)n2)sc(=O)n1C [Compound 73, N-Benzyl-4-[4-(3,4-dimethyl-2-oxo-2,3-dihydro-thiazol-5-yl)-pyrimidin-2-ylamino]-benzenesulfonamide]
18 | – | – | 380 | – | – | – | – | 69.8 | Cc1c(-c2ccnc(Nc3ccc(CN)cc3)n2)sc(=O)n1C [Compound 80, 5-[2-(4-Aminomethyl-phenylamino)-pyrimidin-4-yl]-3,4-dimethyl-3H-thiazol-2-one]
